Source: paper PMC7580763, “Novel insights on saccharin- and acesulfame-based carbonic anhydrase inhibitors: design, synthesis, modelling investigations and biological activity evaluation” (Journal of Enzyme Inhibition and Medicinal Chemistry, 2020)
“And” between values parts separate entries of the source, which are not always exact repeats. Identical values can stand only once. Like-named read-outs stand apart in the source and are kept apart here.

Key:
Type in all cases: biochemical
hCA II = hCA II (Homo sapiens, UniProt P00918); test: CA inhibition, stopped-flow CO2 hydrase assay, hCA II
Protocol: (§1) An Applied Photophysics stopped-flow instrument has been used for assaying the CA-catalyzed CO2 hydration activity. […] The initial rates of the CA-catalysed CO2 hydration reaction were followed for a period of 10−100 s. The CO2 concentrations ranged from 1.7 to 17 mM for the determination of the kinetic parameters and inhibition constants. […] The uncatalyzed rates were determined in the same manner and subtracted from the total observed ones. Stock solutions of each inhibitor (0.1 mM) were prepared in distilled − deionized water and dilutions up to 0.01 nM were done thereafter with distilled − deionized water. Inhibitor and enzyme solutions were preincubated together for 15 min at room temperature prior to assay to allow for the formation of the E−I complex. The inhibition constants were obtained by nonlinear least-squares methods using the Cheng-Prusoff equation and represent the mean from at least three different determinations. […] Human CA isoforms were recombinant enzymes obtained in-house as reported earlier.

hCA I = hCA I (Homo sapiens, UniProt P00915); test: CA inhibition, stopped-flow CO2 hydrase assay, hCA I
Protocol: as §1

hCA XII = hCA XII (Homo sapiens, UniProt O43570); test: CA inhibition, stopped-flow CO2 hydrase assay, hCA XII
Protocol: as §1

hCA IX = hCA IX (Homo sapiens, UniProt Q16790); test: CA inhibition, stopped-flow CO2 hydrase assay, hCA IX
Protocol: as §1

[1] = Table 1, saccharin-based derivatives, recombinant enzyme, 15 min preincubation, pH 7.5
[2] = Table 2, acesulfame-based derivatives, mean from 3 different assays, errors ± 5–10%

Sequence of hCA XII (O43570 25-354): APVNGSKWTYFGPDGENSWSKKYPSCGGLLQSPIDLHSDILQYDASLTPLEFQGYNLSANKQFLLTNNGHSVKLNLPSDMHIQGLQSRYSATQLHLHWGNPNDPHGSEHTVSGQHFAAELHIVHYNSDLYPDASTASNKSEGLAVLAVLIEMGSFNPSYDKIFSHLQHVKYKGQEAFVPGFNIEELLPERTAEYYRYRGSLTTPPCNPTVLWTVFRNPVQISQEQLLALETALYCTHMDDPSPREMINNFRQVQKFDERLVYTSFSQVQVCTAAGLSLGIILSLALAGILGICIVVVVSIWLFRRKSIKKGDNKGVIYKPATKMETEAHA
Sequence of hCA I (P00915 whole entry): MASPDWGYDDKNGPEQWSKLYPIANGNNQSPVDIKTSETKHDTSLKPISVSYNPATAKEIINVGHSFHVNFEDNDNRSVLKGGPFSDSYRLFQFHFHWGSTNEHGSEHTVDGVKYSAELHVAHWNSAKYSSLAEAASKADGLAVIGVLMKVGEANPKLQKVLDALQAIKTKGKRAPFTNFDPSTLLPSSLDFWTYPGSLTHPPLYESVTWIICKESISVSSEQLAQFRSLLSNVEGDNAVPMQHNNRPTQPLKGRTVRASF

| Ki (hCA II; [1]) | Ki (hCA I; [1]) | Ki (hCA XII; [1]) | Ki (hCA IX; [1]) | Ki (hCA II; [2]) | Ki (hCA I; [2]) | Ki (hCA XII; [2]) | Ki (hCA IX; [2]) | Compound | further results |
| --- | --- | --- | --- | --- | --- | --- | --- | --- | --- |
| > 1000 µM | > 1000 µM | > 1000 µM | > 1000 µM |  |  |  |  | O=C1c2ccccc2S(=O)(=O)N1Cc1cn(-c2ccccc2)nn1 [Compound 41] | Ki (hCA II): > 1000 µM; Ki (hCA I): > 1000 µM; Ki (hCA XII): > 1000 µM; Ki (hCA IX): > 1000 µM |
| 80.8 µM | > 1000 µM | > 1000 µM | 759 µM |  |  |  |  | O=C1c2ccccc2S(=O)(=O)N1Cc1cn(-c2ccc(Cl)cc2)nn1 [Compound 42] |  |
| 76.4 µM | > 1000 µM | > 1000 µM | 538 µM |  |  |  |  | O=C1c2ccccc2S(=O)(=O)N1Cc1cn(-c2ccc(Br)cc2)nn1 [Compound 43] |  |
| > 1000 µM | > 1000 µM | > 1000 µM | 670 µM |  |  |  |  | Cc1ccc(-n2cc(CN3C(=O)c4ccccc4S3(=O)=O)nn2)cc1 [Compound 44] |  |
| > 1000 µM | > 1000 µM | > 1000 µM | 666 µM |  |  |  |  | COc1ccc(-n2cc(CN3C(=O)c4ccccc4S3(=O)=O)nn2)cc1 [Compound 45] |  |
| > 100 µM | > 100 µM |  | 20.9 µM |  |  |  |  | O=C1c2ccccc2S(=O)(=O)N1Cc1cn(Cc2ccccc2)nn1 [Compound 46] | Ki (hCA XII): 7.4 µM; Ki (hCA IX): 20.9 µM and 7.4 µM |
| > 1000 µM | > 1000 µM | > 1000 µM | 927 µM |  |  |  |  | O=C(O)c1ccccc1S(=O)(=O)NCc1cn(-c2ccccc2)nn1 [Compound 47] | inhibitory activity against hCA II, in words (hCA II): ineffective; inhibitory activity against hCA I, in words (hCA I): ineffective; inhibitory activity against hCA XII, in words (hCA XII): ineffective; inhibitory activity against hCA IX, in words (hCA IX): ineffective |
| > 1000 µM | > 1000 µM | > 1000 µM | > 1000 µM |  |  |  |  | Cc1ccc(-n2cc(CNS(=O)(=O)c3ccccc3C(=O)O)nn2)cc1 [Compound 48] | inhibitory activity against hCA II, in words (hCA II): ineffective; inhibitory activity against hCA I, in words (hCA I): ineffective; inhibitory activity against hCA XII, in words (hCA XII): ineffective; inhibitory activity against hCA IX, in words (hCA IX): ineffective |
| > 100 µM | > 100 µM | 4.5 µM | 1.9 µM |  |  |  |  | O=C(O)c1ccccc1S(=O)(=O)NCc1cn(Cc2ccccc2)nn1 [Compound 49] |  |
|  |  |  |  | > 1000 µM | > 1000 µM | 0.24 µM | 0.33 µM | CC(C)=CCN1C(=O)C=C(C)OS1(=O)=O [Compound 50] |  |
|  |  |  |  | > 1000 µM | > 1000 µM | 0.27 µM | 2.7 µM | CC1=CC(=O)N(Cc2ccccc2)S(=O)(=O)O1 [Compound 51] |  |
|  |  |  |  | > 1000 µM | > 1000 µM | 2 µM | 0.47 µM | CC1=CC(=O)N(Cc2ccc(Cl)c(Cl)c2)S(=O)(=O)O1 [Compound 52] |  |
|  |  |  |  | > 1000 µM | > 1000 µM | > 1000 µM | > 1000 µM | CC1=CC(=O)N(Cc2cn(-c3ccccc3)nn2)S(=O)(=O)O1 [Compound 53] |  |
|  |  |  |  | > 1000 µM | > 1000 µM | > 1000 µM | > 1000 µM | CC1=CC(=O)N(Cc2cn(-c3ccc(Cl)cc3)nn2)S(=O)(=O)O1 [Compound 54] |  |
|  |  |  |  | > 1000 µM | > 1000 µM | > 1000 µM | > 1000 µM | CC1=CC(OCc2cn(-c3ccccc3)nn2)=NS(=O)(=O)O1 [Compound 55] |  |
|  |  |  |  | > 1000 µM | > 1000 µM | > 1000 µM | > 1000 µM | CC1=CC(OCc2cn(-c3ccc(C)cc3)nn2)=NS(=O)(=O)O1 [Compound 56] |  |
|  |  |  |  | > 1000 µM | > 1000 µM | > 1000 µM | > 1000 µM | CC1=CC(OCc2cn(-c3ccc(Cl)cc3)nn2)=NS(=O)(=O)O1 [Compound 57] |  |
|  |  |  |  | > 1000 µM | > 1000 µM | > 1000 µM | > 1000 µM | CC1=CC(OCc2cn(-c3ccc(Br)cc3)nn2)=NS(=O)(=O)O1 [Compound 58] |  |
|  |  |  |  | > 1000 µM | > 1000 µM | > 1000 µM | > 1000 µM | COc1ccc(-n2cc(COC3=NS(=O)(=O)OC(C)=C3)nn2)cc1 [Compound 59] |  |
|  |  |  |  | > 100 µM | > 100 µM | > 100 µM | 1.1 µM | CC1=CC(OCc2cn(Cc3ccccc3)nn2)=NS(=O)(=O)O1 [Compound 60] |  |
